In ChEMBL document CHEMBL1140363, “Structure-driven HtL: design and synthesis of novel aminoindazole inhibitors of c-Jun N-terminal kinase activity” (Bioorg Med Chem Lett, 2005):

Biological target: Mitogen-activated protein kinase 8 (Homo sapiens, UniProt P45983)
Assay: Negative log of inhibitory concentration determined against c-Jun N-terminal kinase (Activity reported against the isolated JNK-1 enzyme)

Mitogen-activated protein kinase 8, sequence (P45983 whole entry): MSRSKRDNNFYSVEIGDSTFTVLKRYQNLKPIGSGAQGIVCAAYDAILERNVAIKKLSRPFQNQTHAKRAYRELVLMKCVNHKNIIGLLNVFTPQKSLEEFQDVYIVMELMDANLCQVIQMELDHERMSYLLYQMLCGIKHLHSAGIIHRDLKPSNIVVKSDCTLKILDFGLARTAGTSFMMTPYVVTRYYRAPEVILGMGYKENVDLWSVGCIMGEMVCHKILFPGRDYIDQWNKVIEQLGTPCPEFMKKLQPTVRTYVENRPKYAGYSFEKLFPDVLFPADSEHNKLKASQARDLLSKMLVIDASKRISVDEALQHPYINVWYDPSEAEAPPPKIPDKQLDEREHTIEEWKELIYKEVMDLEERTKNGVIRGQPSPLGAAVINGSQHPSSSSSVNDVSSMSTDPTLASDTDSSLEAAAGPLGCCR

Compound | IC50 [nM]
CC(=O)Nc1ccc(CNc2[nH]nc3cccc(Oc4ccc(S(C)(=O)=O)cc4)c23)cc1 | 794
O=C(NCc1ccccc1Cl)c1cccnc1Oc1ccccc1F | 1580
Clc1cccc(CNc2[nH]nc3cccc(Oc4ccccc4)c23)c1 | 1260
COc1ccc(Oc2ncccc2C(=O)NCc2ccccc2Cl)cc1 | 3980
Nc1ccc2[nH]nc(NCc3ccccc3Cl)c2c1Oc1ccccc1 | 5010
COc1ccc(OC)c(CNc2[nH]nc3cccc(Oc4ccc(S(C)(=O)=O)cc4)c23)c1 | 398
O=[N+]([O-])c1ccc2[nH]nc(NCc3ccccc3Cl)c2c1Oc1ccccc1 | 1580
Clc1ccc(Cl)c(CNc2[nH]nc3cccc(Oc4ccccc4)c23)c1 | 794
CC(=O)Nc1ccc(CNc2[nH]nc3cccc(Oc4ccc(F)cc4)c23)cc1 | 501
COc1ccc(OC)c(CNc2[nH]nc3ccc([N+](=O)[O-])c(Oc4ccccc4)c23)c1 | 794
COc1ccc(OC)c(CNC(=O)c2cccnc2Oc2ccccc2)c1 | 100
C[C@H](NC(=O)c1cccnc1Oc1ccccc1)c1ccccc1 | 6310
COc1ccc(OC)c(CNc2[nH]nc3cccc(Oc4ccc(F)cc4)c23)c1 | 200
CC(=O)Nc1ccc(CNc2[nH]nc3ccnc(Oc4ccccc4)c23)cc1 | 158
COc1ccc(OC)c(CNc2[nH]nc3cccc(Oc4ccccc4)c23)c1 | 126
CC(=O)Nc1ccc(CNc2[nH]nc3cccc(Oc4ccccc4)c23)cc1 | 794
COc1ccc(OC)c(CNc2[nH]nc3ccnc(Oc4ccccc4)c23)c1 | 15.8
